Source: ChEMBL document CHEMBL5244269, “Improving metabolic stability and removing aldehyde oxidase liability in a 5-azaquinazoline series of IRAK4 inhibitors” (Bioorg Med Chem, 2020)

How the values were obtained:
[1] = molecular target: T1, Interleukin-1 receptor-associated kinase 4 (Homo sapiens, UniProt Q9NWZ3); assay: Inhibition of IRAK4 (unknown origin) in presence of ATP by enzymatic assay
T1 sequence (Q9NWZ3 whole entry): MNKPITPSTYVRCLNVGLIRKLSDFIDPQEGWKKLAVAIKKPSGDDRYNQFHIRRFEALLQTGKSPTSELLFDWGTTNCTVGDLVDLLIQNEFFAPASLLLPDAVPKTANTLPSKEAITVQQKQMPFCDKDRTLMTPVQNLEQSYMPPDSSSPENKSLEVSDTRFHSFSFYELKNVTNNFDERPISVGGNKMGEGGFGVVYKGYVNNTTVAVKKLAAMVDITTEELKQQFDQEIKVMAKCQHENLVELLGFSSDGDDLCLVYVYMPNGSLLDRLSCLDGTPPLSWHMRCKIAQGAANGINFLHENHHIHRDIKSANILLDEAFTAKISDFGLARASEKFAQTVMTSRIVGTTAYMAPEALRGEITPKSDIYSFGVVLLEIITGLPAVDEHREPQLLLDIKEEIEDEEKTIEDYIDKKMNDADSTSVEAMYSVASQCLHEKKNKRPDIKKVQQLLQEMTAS

[2] = molecular target: T1, Interleukin-1 receptor-associated kinase 4; assay: Inhibition of IRAK4 (unknown origin) phosphorylation by cell based assay
[3] = Metabolic stability in human liver microsomes assessed as intrinsic clearance; type: ADME, Microsome; settings: read-out: CLH
[4] = Lipophilicity, LogD at pH 7.4 of the compound by shake flask method; type: physicochemical; settings: buffer
[5] = Metabolic stability in human hepatocytes assessed as intrinsic clearance measured per 10^6 cells; type: ADME, cell-based, Hepatocyte; settings: read-out: CLH
Homo sapiens = species on record: Homo sapiens; assay: Selectivity index, ratio of IC50 for inhibition of FLT3 (unknown origin) to IC50 for inhibition of IRAK4 (unknown origin)
[6] = Clearance in human assessed as liver blood flow; type: ADME, tissue-based
[7] = molecular target: T2, Receptor-type tyrosine-protein kinase FLT3 (Homo sapiens, UniProt P36888); assay: Inhibition of FLT3 (unknown origin) in presence of 600 uM ATP
T2 sequence (P36888 whole entry): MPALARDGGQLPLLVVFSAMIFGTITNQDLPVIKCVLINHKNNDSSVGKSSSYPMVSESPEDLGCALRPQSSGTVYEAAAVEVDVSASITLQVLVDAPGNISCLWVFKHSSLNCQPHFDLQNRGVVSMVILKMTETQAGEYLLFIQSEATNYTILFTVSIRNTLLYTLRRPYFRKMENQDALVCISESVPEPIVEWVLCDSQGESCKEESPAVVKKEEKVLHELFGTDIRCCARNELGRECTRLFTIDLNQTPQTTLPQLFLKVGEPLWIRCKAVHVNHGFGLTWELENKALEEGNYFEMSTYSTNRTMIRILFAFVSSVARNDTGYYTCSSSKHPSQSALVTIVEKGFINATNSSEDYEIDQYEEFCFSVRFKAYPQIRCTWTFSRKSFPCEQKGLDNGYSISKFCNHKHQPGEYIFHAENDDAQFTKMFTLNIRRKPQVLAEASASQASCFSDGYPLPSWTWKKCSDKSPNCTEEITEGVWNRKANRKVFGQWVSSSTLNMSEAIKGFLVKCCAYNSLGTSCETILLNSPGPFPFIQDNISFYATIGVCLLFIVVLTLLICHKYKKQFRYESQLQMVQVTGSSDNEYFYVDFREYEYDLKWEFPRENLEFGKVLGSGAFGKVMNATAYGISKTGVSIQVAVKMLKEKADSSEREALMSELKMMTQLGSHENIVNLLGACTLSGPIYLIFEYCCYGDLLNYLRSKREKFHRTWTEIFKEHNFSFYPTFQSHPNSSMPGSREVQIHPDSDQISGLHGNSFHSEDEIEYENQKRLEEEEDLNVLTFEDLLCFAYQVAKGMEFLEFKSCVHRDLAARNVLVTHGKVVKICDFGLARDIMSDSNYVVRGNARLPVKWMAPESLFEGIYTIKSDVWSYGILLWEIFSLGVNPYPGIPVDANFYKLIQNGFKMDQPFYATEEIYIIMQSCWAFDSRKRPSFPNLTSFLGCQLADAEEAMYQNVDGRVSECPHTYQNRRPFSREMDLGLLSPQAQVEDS

[8] = Clearance in human; type: ADME
[9] = Efflux ratio of apparent permeability basolateral to apical side over apical to basolateral side in human Caco-2 cells measured for 360 mins by liquid scintillation counting based analysis; type: ADME, cell-based
[10] = Metabolic stability in human cytosol assessed as intrinsic clearance; type: ADME, subcellular
[11] = Apparent permeability across apical to basolateral side in human Caco-2 cells measured for 360 mins by liquid scintillation counting based analysis; type: ADME, cell-based
[12] = molecular target: High affinity nerve growth factor receptor (Homo sapiens, UniProt P04629); assay: Inhibition of TRKA (unknown origin) in presence of 400 uM ATP
Chain of High affinity nerve growth factor receptor (P04629 whole entry): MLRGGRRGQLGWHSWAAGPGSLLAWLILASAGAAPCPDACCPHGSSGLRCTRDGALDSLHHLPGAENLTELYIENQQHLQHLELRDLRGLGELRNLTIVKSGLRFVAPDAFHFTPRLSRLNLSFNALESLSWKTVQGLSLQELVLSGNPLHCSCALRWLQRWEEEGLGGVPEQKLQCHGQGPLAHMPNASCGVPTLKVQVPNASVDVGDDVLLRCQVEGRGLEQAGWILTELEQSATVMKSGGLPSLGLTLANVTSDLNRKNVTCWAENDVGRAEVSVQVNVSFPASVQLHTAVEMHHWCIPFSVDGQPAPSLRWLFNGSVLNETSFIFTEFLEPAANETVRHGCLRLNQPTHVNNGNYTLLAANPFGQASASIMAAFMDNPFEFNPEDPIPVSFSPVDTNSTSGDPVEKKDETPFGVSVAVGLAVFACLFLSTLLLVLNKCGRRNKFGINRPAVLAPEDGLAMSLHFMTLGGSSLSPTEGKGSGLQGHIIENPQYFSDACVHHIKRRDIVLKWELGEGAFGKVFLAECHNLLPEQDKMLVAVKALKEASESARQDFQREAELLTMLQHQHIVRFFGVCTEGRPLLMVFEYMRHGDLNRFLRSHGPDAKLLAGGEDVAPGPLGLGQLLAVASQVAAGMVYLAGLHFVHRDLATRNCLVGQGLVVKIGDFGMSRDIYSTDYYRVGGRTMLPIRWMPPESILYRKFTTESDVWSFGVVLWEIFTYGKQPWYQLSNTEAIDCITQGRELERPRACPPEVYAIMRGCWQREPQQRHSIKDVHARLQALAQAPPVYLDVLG

SMILES	IC50 [1] [nM]	IC50 [2] [nM]	microsomal CLint [3] [µL/min/mg]	logD [4]	hepatocyte CLint [5] [µL/min/1e6 cells]	Ratio IC50 (Homo sapiens)	LBF [6] [%]	IC50 [7] [nM]	clearance [8] [mL/min/kg]	efflux ratio at 6 h [9]	microsomal CLint [10] [µL/min/mg]	Papp A→B at 6 h [11] [×10⁻⁶ cm/s]	IC50 [12] [nM]
CN1CCC(n2cc(Nc3nc(OC4(C)CC4)c4nc(-c5ccn(C)n5)ccc4n3)cn2)CC1	490	21000	18	2.1	–	–	–	–	–	–	–	–	–
Cc1ccc2nc(Nc3cnn(C4CCN(C)CC4)c3)nc(OC3(C)CC3)c2n1	3	100	18	1.8	1.9	> 30	20	16	5	2.5	< 0.5	20	–
CN1CCC(n2cc(Nc3nc(OC4(C)CC4)c4nc(C5CC5)ccc4n3)cn2)CC1	2	38	37	2.8	4.6	–	–	–	–	–	–	–	–
Cc1ncc(-c2ccc3nc(Nc4cnn(C5CCN(C)CC5)c4)nc(OC4(C)CC4)c3n2)c(C)n1	7	260	23	2.1	3.4	–	–	–	–	–	2.2	–	–
CC(=O)N1CCC(n2cc(Nc3nc(OC4CCOCC4)c4nc(CC#N)ccc4n3)cn2)CC1	32	2000	5	1.2	–	–	–	–	–	–	–	–	–
Cn1cc(Nc2nc(NC3CCOCC3)c3nc(CC#N)ccc3n2)cn1	139	2100	–	1.7	–	–	–	–	–	–	–	–	–
CN1CCC(n2cc(Nc3nc(OC4(C)CC4)c4nc(-c5cnn(C)c5)ccc4n3)cn2)CC1	3	210	15	2.2	1.7	< 5	–	170	–	–	–	–	–
Cn1cc(Nc2nc(N[C@H]3CCOC3)c3nc(CC#N)ccc3n2)cn1	113	2600	–	1.6	–	–	–	–	–	–	–	–	–
Cc1ncc(-c2nc3c(OC4(C)CC4)nc(Nc4cnn(C5CC6(C5)CN(C)C6)c4)nc3cc2F)cn1	3	220	< 3	1.4	< 1	–	–	–	–	–	–	–	–
Cn1cc(Nc2nc(NC3(C)CC3)c3nc(CC#N)ccc3n2)cn1	2	110	–	2.7	71	–	–	–	–	–	–	–	–
Cc1ncc(-c2nc3c(NC4(C)CC4)nc(Nc4cnn(C5CC6(C5)CN(C)C6)c4)nc3cc2F)cn1	0.6	54	11	2.1	< 1	–	–	–	–	–	–	–	–
CN1CCC(n2cc(Nc3nc(OC4(C)CC4)c4nc(-c5cn(C)cn5)ccc4n3)cn2)CC1	730	6800	14	1.8	–	–	–	–	–	–	–	–	–
Cc1ncc(-c2ccc3nc(Nc4cnn(C5CCN(C)CC5)c4)nc(OC4(C)CC4)c3n2)cn1	1.8	140	52	2.2	170	–	–	–	–	–	69	–	–
Cn1cc(Nc2nc(N[C@@H]3CCOC3)c3nc(CC#N)ccc3n2)cn1	211	3500	–	1.5	–	–	–	–	–	–	–	–	–
CN1CC2(CC(n3cc(Nc4nc(OC5(C)CC5)c5nc(C6CC6)c(F)cc5n4)cn3)C2)C1	3	300	< 3	2.6	< 1	–	–	–	–	–	–	–	–
COC(=O)N1CCN([C@H]2CC[C@H](Nc3nc(Nc4cnn(C)c4)nc4ccc(CC#N)nc34)CC2)CC1	3	170	–	–	–	–	70	–	13	24	–	9.3	–

SMILES	IC50 [1] [nM]	IC50 [2] [nM]	microsomal CLint [3] [µL/min/mg]	logD [4]	hepatocyte CLint [5] [µL/min/1e6 cells]	Ratio IC50 (Homo sapiens)	LBF [6] [%]	IC50 [7] [nM]	clearance [8] [mL/min/kg]	efflux ratio at 6 h [9]	microsomal CLint [10] [µL/min/mg]	Papp A→B at 6 h [11] [×10⁻⁶ cm/s]	IC50 [12] [nM]
CC(=O)N1CCC(n2cc(Nc3nc(NC4CCOCC4)c4nc(CC#N)ccc4n3)cn2)CC1	12	670	26	1.4	–	–	–	–	–	86	–	4.1	–
Cc1ncncc1-c1nc2c(OC3(C)CC3)nc(Nc3cnn(C4CCN(C)CC4)c3)nc2cc1F	15	480	53	2.2	5.5	–	–	–	–	–	< 0.5	–	–
CN1CCC(n2cc(Nc3nc(OC4(C)CC4)c4nc(-c5ccnnc5)ccc4n3)cn2)CC1	1	130	48	1.7	8.4	–	–	–	–	–	–	–	–
CC(C)Nc1nc(Nc2cnn(C)c2)nc2ccc(CC#N)nc12	51	570	–	2.4	–	–	–	–	–	–	–	–	–
Cc1ncc(-c2nc3c(OC4(C)CC4)nc(Nc4cnn([C@@H]5C[C@@H]6C[C@H]5CN6C)c4)nc3cc2F)cn1	4	310	15	1.7	< 1	–	–	–	–	–	–	–	–
Cn1cc(Nc2nc(NC3COC3)c3nc(CC#N)ccc3n2)cn1	447	9400	–	1.2	–	–	–	–	–	–	–	–	–
Cc1ncncc1-c1ccc2nc(Nc3cnn(C4CCN(C)CC4)c3)nc(OC3(C)CC3)c2n1	5	170	44	1.9	4.7	–	–	–	–	–	4.8	–	–
Cn1cc(Nc2nc(NC3CC3)c3nc(CC#N)ccc3n2)cn1	22	490	–	2.1	–	–	–	–	–	–	–	–	–
CN1CCC(n2cc(Nc3nc(OC4(C)CC4)c4nc(-c5cn(C)nn5)ccc4n3)cn2)CC1	19	510	13	1.8	< 1	–	–	–	–	–	–	–	–
N#CCc1ccc2nc(Nc3cnn(C4CCOCC4)c3)nc(NC3CCOCC3)c2n1	15	570	110	1.9	–	–	–	–	–	–	–	–	–
Cc1ncc(-c2nc3c(OC4(C)CC4)nc(Nc4cnn([C@@H]5C[C@H]6C[C@@H]5CN6C)c4)nc3cc2F)cn1	32	1100	14	1.5	–	–	–	–	–	–	–	–	–
CC(=O)N1CCC(n2cc(Nc3nc(OC4CCOCC4)c4nc(C)ccc4n3)cn2)CC1	3	71	33	2.3	4.6	–	–	30	–	2.6	–	45	20
CN1CCC(n2cc(Nc3nc(OC4(C)CC4)c4nc(C(=O)N(C)C)ccc4n3)cn2)CC1	13	670	< 4.5	1.2	1.7	–	–	–	–	17	–	1.5	–
CN1CCC(n2cc(Nc3nc(OC4(C)CC4)c4nc(-c5cncnc5)c(F)cc4n3)cn2)CC1	1	29	88	–	14	–	–	–	–	–	20	–	–
Cc1nc2c(OC3(C)CC3)nc(Nc3cnn(C4CC5(C4)CN(C)C5)c3)nc2cc1F	3	200	< 3	2.2	4	–	–	–	–	–	–	–	–
CN1CCC(n2cc(Nc3nc(OC4(C)CC4)c4nc(-c5cccnc5)ccc4n3)cn2)CC1	1	120	130	2.6	–	–	–	–	–	–	–	–	–
